According to US12527760B2, “Synthesis of pro-resolving analogs and compositions therefor” (Nocendra Inc., priority 2019, dated 2026):

Legend:
subjects with gingivitis = test: randomized, placebo-controlled, double-blind clinical study of Compound (Vb) oral rinse in gingivitis; type: in vivo, humans
Method: A clinical study comprised of 3 groups in a randomized, placebo-controlled, double-blind design with an additional group that received no treatment was performed to evaluate the use of Compound (Vb) on the treatment of gingivitis. Subjects were healthy adults, aged 18 through 65 years, with gingivitis as defined by […] (MGI)≥2.0. The treatment group (Compound (Vb) oral rinse) and the placebo rinse group consisted of 50 subjects each. The no-rinse control group consisted of 27 subjects. These group sizes were planned to allow for a 20% dropout rate.
(§1) The pH of this solution was 7 or less.
The Compound (Vb) oral rinse group received the active agent at a concentration of 1.0 μM in the oral rinse applied once daily (after morning teeth brushing) for 28 days. Thirty-two subjects reported a total of 56 treatment emergent adverse effects (TEAEs), with the greatest percentage of subjects reporting at least 1 TEAE in the Compound (Vb) group (38.0%) followed by the placebo group (20.0%) and the no-rinse control group (11.1%). Overall, 10 subjects reported at least 1 TEAE considered related to study drug, and 5 subjects reported at least one TEAE related to study procedures.
The primary outcome of this study was safety, and therefore, all efficacy analyses were considered secondary outcomes. The key secondary efficacy outcomes in this study were Modified Gingival Index (MGI) and BOP.

[1] = stability of the methyl ester in the oral rinse formulation over the course of the study; type: physicochemical; details: neutral pH (7 or less)
Excerpt: as §1
Without wishing to be bound by theory, it is believed that […] the pH of the oral rinse formulation increases the stability of the methyl ester forms of these benzo-lipoxin analogs and mimetics, therefore allowing for more efficient delivery of the active compounds (e.g., Compound (Vb), etc.) in these formulations.

[2] = tested on: eicosanoid oxido-reductase; details: in comparison with native lipoxin A4; cited from earlier work
[3] = tested on: polymorphonuclear neutrophil infiltration; details: murine peritonitis model, compared with the vehicle control; cited from earlier work
[4] = 1.0 μM oral rinse once daily for 28 days
[5] = oral TEAE possibly related to study drug

CCCCC[C@@H](O)/C=C/c1ccccc1/C=C/[C@@H](O)[C@@H](O)CCCC(=O)OC [Compound (Vb), methyl (5S,6R,E)-5,6-dihydroxy-8-(2-((R,E)-3-hydroxyoct-1-en-1-yl)phenyl)oct-7-enoate]
overall safety and tolerability (subjects with gingivitis; [4]): generally safe and well tolerated | percentage of subjects reporting at least 1 TEAE (subjects with gingivitis; [4]): 38.0% | subjects reporting oral TEAEs considered possibly related to study drug (subjects with gingivitis; [4]): Four | subjects with study drug-related TEAEs (subjects with gingivitis; [4]): 6 subjects | change in mean MGI (subjects with gingivitis; Day 14 and 28, relative to placebo): clinically important decrease | BOP (subjects with gingivitis; Day 28, versus placebo): did not result in meaningful differences | extent of clinical gingivitis (subjects with gingivitis; compared with the placebo group): reduced the extent of clinical gingivitis | TEAEs leading to study drug discontinuation (subjects with gingivitis; human, in vivo): No TEAEs led to study drug discontinuation | severity of oral TEAEs (subjects with gingivitis; human, in vivo, po): mild in severity | subjects reporting an oral disorder (subjects with gingivitis; [5]): 1 subject | subjects reporting dry mouth (subjects with gingivitis; [5]): 3 subjects | pocket depth reduction (subjects with gingivitis; sites with pockets >6 mm, ± SD): −1.23±0.406 mm | stability of the methyl ester in the formulation [1]: increase in the free acid form | conversion to inactive forms [2]: not readily converted to inactive forms | inhibition of polymorphonuclear neutrophil infiltration [3]: approximately 32%
